This passage reports IC50 and Activity results from ChEMBL document CHEMBL1143363, “Discovery of trisubstituted cyclohexanes as potent CC chemokine receptor 2 (CCR2) antagonists” (Bioorg Med Chem Lett, 2009).

The target of experiment [1] is T1, C-C chemokine receptor type 2 (Homo sapiens, UniProt P41597). The experiment is described as follows: Displacement of [125I]MCP1 from CCR2 in human PBMCs. (Displacement assays read how much labelled ligand stays bound in the presence of the test substance.)
Target sequence in this assay (P41597 whole entry): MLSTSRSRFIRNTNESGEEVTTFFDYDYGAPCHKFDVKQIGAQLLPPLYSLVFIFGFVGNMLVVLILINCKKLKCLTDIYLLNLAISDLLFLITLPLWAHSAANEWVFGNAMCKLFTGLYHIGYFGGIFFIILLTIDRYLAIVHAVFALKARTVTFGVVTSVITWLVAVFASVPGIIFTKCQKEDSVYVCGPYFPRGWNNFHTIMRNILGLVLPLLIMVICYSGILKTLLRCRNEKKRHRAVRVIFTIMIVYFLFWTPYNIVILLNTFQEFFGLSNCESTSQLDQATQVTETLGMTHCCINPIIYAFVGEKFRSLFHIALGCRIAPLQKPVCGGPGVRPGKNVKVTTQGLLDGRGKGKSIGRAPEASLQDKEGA
Experiment [2] has as its target T1, C-C chemokine receptor type 2. As to the kind of experiment: Antagonist activity at CCR2 in human monocytes assessed as inhibition of MCP1-induced calcium influx by FLIPR. Type of experiment: functional, cell-based.
Target sequence in this assay (P41597 whole entry): as above
For experiment [3] the target is unchanged. The experiment is described as follows: Displacement of [125I]MCP1 from CCR2 in human PBMCs at 1 uM.
Target sequence in this assay (P41597 whole entry, looked up): as the sequence (P41597 whole entry) above
Experiment [4] in a line: Antagonist activity at CCR2 in human PBMCs assessed as inhibition of MCP1-induced chemotaxis.

The IC50 is the point on the concentration scale where inhibition reaches its midpoint. In turn, `CSc1ccc(C(=O)NC2CCC(NC(=O)OCc3ccccc3)CC2NC(=O)CNC(=O)c2cc(C(F)(F)F)ccc2NC(=O)OC(C)(C)C)cc1` (racemic) registered an IC50 in experiment [1] of 600 nM. The same measure, in the same setting: as for `CSc1ccc(C(=O)NC2CC(N)CCC2NC(=O)CNC(=O)c2cccc(C(F)(F)F)c2)cc1` (racemic), the figure is 228 nM.

As to `CN(C)C1CCC(NC(=O)CNC(=O)c2cccc(C(F)(F)F)c2)C(NCc2ccc(Cl)cc2)C1` (racemic), the IC50 was found to be 7 nM in experiment [2] and 16 nM in experiment [1].

Turning to `CNC(=O)NC1CCC(NC(=O)c2ccc(SC)cc2)C(NC(=O)CNC(=O)c2cc(C(F)(F)F)ccc2N)C1` (racemic), the IC50 in experiment [1] is 112 nM. Take `CSc1ccc(C(=O)NC2CCC(N)CC2NC(=O)CNC(=O)c2cccc(C(F)(F)F)c2)cc1` (racemic): the Activity in experiment [3] was determined as 13%. For `CSc1ccc(C(=O)NC2CC(NC(=O)OCc3ccccc3)CCC2NC(=O)CNC(=O)c2cccc(C(F)(F)F)c2)cc1` (racemic; form 2), the IC50 in experiment [2] came out at 2 nM; in experiment [1], 2.4 nM. The corresponding values for `Cc1ccc(CNC2CC(N(C)C)CCC2NC(=O)CNC(=O)c2cccc(C(F)(F)F)c2)cc1` (racemic) are 5.5 nM and 9.9 nM. Consider `CC(=O)Nc1ccc(CNC2CC(N(C)C)CCC2NC(=O)CNC(=O)c2cccc(C(F)(F)F)c2)cc1` (racemic), for which, in experiment [1], the IC50 amounted to 7.7 nM. In turn, `CSc1ccc(C(=O)NC2CCC(NC(=O)OCc3ccccc3)CC2NC(=O)CNC(=O)c2cccc(C(F)(F)F)c2)cc1` (racemic) registered an Activity in experiment [3] of 0%. The compound also gave an IC50 in experiment [1] of 1610 nM. As to `CN(C)C1CCC(NC(=O)CNC(=O)c2cccc(C(F)(F)F)c2)C(NCc2cccc(C(F)(F)F)c2)C1` (racemic), the results for the IC50 in experiment [2] and in experiment [1] were 27 nM and 32.5 nM, respectively. On to `CSc1ccc(C(=O)NC2CC(N)CCC2NC(=O)CNC(=O)c2cc(C(F)(F)F)ccc2N)cc1` (racemic), for which the IC50 in experiment [2] amounted to 6 nM; in experiment [1], 4.8 nM.

As for `CSc1ccc(C(=O)NC2CC(NC(=O)OCc3ccccc3)CCC2NC(=O)CNC(=O)c2cccc(C(F)(F)F)c2)cc1` (racemic; form 1), the Activity in experiment [3] was 14%. In the case of `CN(C)C1CCC(NC(=O)CNC(=O)c2cccc(C(F)(F)F)c2)C(NCc2ccc(Cl)c(Cl)c2)C1` (racemic), the IC50 in experiment [1] was found to be 61.5 nM.

In turn, `CSc1ccc(C(=O)NC2CCC(N)CC2NC(=O)CNC(=O)c2cc(C(F)(F)F)ccc2N)cc1` (racemic) had an Activity in experiment [3] of 28.1%. The compound also yielded an IC50 in experiment [1] of 167 nM.

With `CSc1ccc(CNC2CC(N(C)C)CCC2NC(=O)CNC(=O)c2cccc(C(F)(F)F)c2)cc1` (racemic), the IC50 in experiment [2] was 6 nM; in experiment [1] it was 2.4 nM. The corresponding values for `CN(C)C1CCC(NC(=O)CNC(=O)c2cccc(C(F)(F)F)c2)C(NCc2ccc3[nH]ccc3c2)C1` (racemic) are 8 nM and 3.1 nM. In experiment [1], `CSc1ccc(C(=O)NC2CCCCC2NC(=O)CNC(=O)c2cc(C(F)(F)F)ccc2N)cc1` (racemic) registered an IC50 of 155 nM. For the compound `CC(C)c1ccc(CNC2CC(N(C)C)CCC2NC(=O)CNC(=O)c2cccc(C(F)(F)F)c2)cc1` (racemic), the results for the IC50 in experiment [2] and in experiment [1] were 19 nM and 16.5 nM, respectively. Regarding `CSc1ccc(C(=O)NC2CCC(NC(C)C)CC2NC(=O)CNC(=O)c2cccc(C(F)(F)F)c2)cc1` (racemic), the IC50 in experiment [1] came out at 136 nM. In turn, `CSc1ccc(C(=O)NC2CCC(NC(=O)OCc3ccccc3)CC2NC(=O)CNC(=O)c2cc(C(F)(F)F)ccc2N)cc1` (racemic) came in with an Activity in experiment [3] of 3.1%. Turning to `COc1ccc(CNC2CC(N(C)C)CCC2NC(=O)CNC(=O)c2cccc(C(F)(F)F)c2)cc1` (racemic), the IC50 in experiment [2] came out at 8 nM; in experiment [1], 12.5 nM. On to `CSc1ccc(C(=O)NC2CCC(NC(C)C)CC2NC(=O)CNC(=O)c2cc(C(F)(F)F)ccc2N)cc1` (racemic), for which the IC50 turned out to be 2 nM in experiment [2] and 3.8 nM in experiment [1]. In turn, `CSc1ccc(C(=O)NC2CC(NC(C)C)CCC2NC(=O)CNC(=O)c2cccc(C(F)(F)F)c2)cc1` (racemic) yielded an Activity in experiment [3] of 31.4%. Regarding `CSc1ccc(C(=O)NC2CCNCC2NC(=O)CNC(=O)c2cc(C(F)(F)F)ccc2N)cc1` (racemic), the IC50 in experiment [4] was 109 nM.
